Source: patent US11992497B2 (priority 2021, dated 2024)
Like-named read-outs stand apart in the source and are kept apart here.

Experiments:
[1] = tested on: lipopolysaccharide (LPS)-induced inflammation; test: Rat LPS model, serum pro-inflammatory cytokines; assay type: in vivo, Sprague Dawley rats; conditions: oral, 4 days; 2 h after LPS
Description: This assay was employed to determine the efficacies of CBG, compound 1, and compound 2 against lipopolysaccharide (LPS)-induced inflammation in Sprague Dawley rats.
Eight- to 10-week-old male rats were treated with CBG, Compound 1, and Compound 2, or a positive control (cyclosporin A) for four days prior to treatment with LPS. Twenty-eight (28) Sprague Dawley male rats, 8-10 weeks old, were used for this study. Animals were randomized by weight into one of 7 treatment groups as shown in Table 10 below and treated for 4 days with either vehicle control (Groups 1 and 2), Cyclosporin A (Neoral) (Group 3), CBG at 30 mg/kg (Group 4), Compound 1 at 31.5 mg/kg (Group 5), Compound 2 at 32.7 mg/kg (Group 6) or CBG at 30 mg/kg (intraperitoneal/IP; Group 7). Groups 1-6 were dosed for 4 days by oral gavage; group 7 was dosed for 4 days by IP injection. After the 4th injection, Groups 2-7 received a single IP injection of LPS at 5 mg/kg to induce inflammation. Body weight was recorded every other day starting on the day of or day prior to the first day of treatment. A terminal body weight was recorded. General health and clinical signs were recorded once daily. Blood was collected to isolate immune cells at 2 hours after the LPS injection. […]
Serum samples (N=82) were processed and shipped to Inotiv Boulder for analysis. […] The samples were analyzed for cytokine levels using the RECYTMAG-65K Luminex™ kit. […]

[2] = Hepatocyte stability and metabolite profiling; assay type: in vitro ADME, dog; conditions: cryopreserved hepatocytes in suspension; Dog cryopreserved hepatocytes
Description: (§1) The objective of this study was to investigate the stability of the test compound, CBG, in human, rat, dog, mouse, monkey and minipig cryopreserved hepatocytes. Follow-on metabolite profiling was performed.
(§2) CBG was incubated up to 2 hr with cryopreserved hepatocytes. Cryopreserved hepatocytes in suspension were added to test compound in supplemented media following pre-incubation to initiate the reaction and the reactions were stopped by organic solvent at the appropriate time points. The termination plates were centrifuged and sample supernatants were analysed using Cyprotex generic LC MS/MS conditions to generate intrinsic clearance values for CBG. Two control compounds for each species were included in the assay and if the values for these compounds were not within the specified limits the results were rejected and the experiment repeated.
(§3) Following the hepatocyte stability assay the samples were 59tilized for metabolite profiling using suitable high-resolution LC-MS/MS conditions. The 40 and 60 minute human samples, 20 and 120 minute rat samples, 10 and 20 minute dog and monkey samples, 20 and 60 minute mouse samples, and 40 and 120 minute minipig samples were compared against the 0 minute control sample to establish which and how many metabolites were formed. […] No further analysis was carried out with the mouse species.
(§4) The areas and percentages reported for the parent and metabolites were calculated using the XIC data. Metabolite observed at greater than 1% of the total of drug related material are reported. […] For accuracy, a ppm error of less than 5 is desirable; when the response for a metabolite observed is low the ppm error maybe greater than 5. Where a metabolite has been referred to as a potential oxidation it can refer to a potential hydroxylation, epoxidation or oxide formation. Representative collision induced dissociation (CID) mass spectra were obtained for the metabolites found.

[3] = tested on: cryopreserved hepatocytes; test: Hepatocyte stability and metabolite profiling; assay type: in vitro ADME, dog; conditions: dog hepatocyte samples
Description: as §1, §2, §3, §4

[4] = Quantification of CBG and CBG glucuronide in rat plasma (LC-MS/MS); assay type: in vivo, Sprague-Dawley rat
Description: The purpose of this study was to quantify cannabigerol (CBG) in rat plasma and brain.
Seven- to nine-week-old male and female Sprague-Dawley received either a single dose or once daily dosing for 21 days of vehicle or CBG at three different dosage levels as shown in the Table below.
Approximately 0.2-0.25 mL blood was collected during the first 24 hours after the single dose, and at multiple times points after the terminal dose for the animals receiving daily dosing for 21 days. Liver, kidney, and colon samples were collected and fixed in 10% NBF for 48 hours, then stored in 70% ethanol at room temperature. Brain samples were collected and flash frozen.
Analytical curves were constructed using non-zero standards with CBG concentration ranging from 0.0025 to 2.500 μg/mL and 2.500-100.0 μg/mL in blank rat plasma samples and 1.0 to 2500 ng/mL in blank brain tissues. A blank sample was used to exclude contamination.
Instrument Used: AB SCIEX QTRAP 4500/Shimadzu Prominence LC

[5] = Hepatocyte stability and metabolite profiling; assay type: in vitro ADME, human; conditions: cryopreserved hepatocytes in suspension; Human cryopreserved hepatocytes
Description: as §1, §2, §3, §4

[6] = tested on: cryopreserved hepatocytes; test: Hepatocyte stability and metabolite profiling; assay type: in vitro ADME, human; conditions: human hepatocyte samples
Description: as §1, §2, §3, §4

CCCCCc1cc(OC)c(C/C=C(\C)CCC=C(C)C)c(OC)c1 [Compound 2, (E)-2-(3,7-dimethylocta-2,6-dien-1-yl)-1,3-dimethoxy-5-pentylbenzene]
reduction of IL-1B and IFNy relative to CBG (in words) [1]: equal to or better than CBG

CCCCCc1cc(O)c(C/C=C(\C)CCC=C(C)C)c(O)c1 [CBG, cannabigerol]
half-life [2]: 52.7 min
hepatocyte CLint [2]: 26.3 µL/min/1e6 cells
number of metabolites observed [3]: three
CBG concentration in rat plasma (Day 21) ([4]; CBG 10 mg/kg oral gavage once daily, 15 min post Rx): BLQ (BLQ—Below Limit of Quantification (2.5 ng/ml))
CBG concentration in rat plasma (Day 21) ([4]; CBG 10 mg/kg oral gavage once daily, 30 min post Rx): BLQ (BLQ—Below Limit of Quantification (2.5 ng/ml))
CBG concentration in rat plasma (Day 21) ([4]; CBG 10 mg/kg oral gavage once daily, 24 hr post Rx): BLQ (BLQ—Below Limit of Quantification (2.5 ng/ml))
CBG concentration in rat plasma (Day 1) ([4]; CBG 10 mg/kg oral gavage once, 15 min post Rx): BLQ (BLQ—Below Limit of Quantification (2.5 ng/ml))
CBG concentration in rat plasma (Day 1) ([4]; CBG 10 mg/kg oral gavage once, 30 min post Rx): BLQ (BLQ—Below Limit of Quantification (2.5 ng/ml))
CBG concentration in rat plasma (Day 1) ([4]; CBG 10 mg/kg oral gavage once, 4 hr post Rx): BLQ (BLQ—Below Limit of Quantification (2.5 ng/ml))
CBG concentration in rat plasma (Day 1) ([4]; CBG 10 mg/kg oral gavage once, 8 hr post Rx): BLQ (BLQ—Below Limit of Quantification (2.5 ng/ml))
CBG concentration in rat plasma (Day 1) ([4]; CBG 10 mg/kg oral gavage once, 24 hr post Rx): BLQ (BLQ—Below Limit of Quantification (2.5 ng/ml))
CBG concentration in rat plasma (Day 21) ([4]; CBG 30 mg/kg oral gavage once daily, 30 min post Rx): BLQ (BLQ—Below Limit of Quantification (2.5 ng/ml))
CBG concentration in rat plasma (Day 21) ([4]; CBG 30 mg/kg oral gavage once daily, 1 hr post Rx): BLQ (BLQ—Below Limit of Quantification (2.5 ng/ml))
CBG concentration in rat plasma (Day 21) ([4]; CBG 30 mg/kg oral gavage once daily, 2 hr post Rx): BLQ (BLQ—Below Limit of Quantification (2.5 ng/ml))
CBG concentration in rat plasma (Day 21) ([4]; CBG 30 mg/kg oral gavage once daily, 4 hr post Rx): BLQ (BLQ—Below Limit of Quantification (2.5 ng/ml))
CBG concentration in rat plasma (Day 21) ([4]; CBG 30 mg/kg oral gavage once daily, 8 hr post Rx): BLQ (BLQ—Below Limit of Quantification (2.5 ng/ml))
CBG concentration in rat plasma (Day 21) ([4]; CBG 30 mg/kg oral gavage once daily, 24 hr post Rx): BLQ (BLQ—Below Limit of Quantification (2.5 ng/ml))
CBG concentration in rat plasma (Day 1) ([4]; CBG 30 mg/kg oral gavage once, 8 hr post Rx): BLQ (BLQ—Below Limit of Quantification (2.5 ng/ml))
CBG concentration in rat plasma (Day 21) ([4]; CBG 100 mg/kg oral gavage once daily, 24 hr post Rx): BLQ (BLQ—Below Limit of Quantification (2.5 ng/ml))
CBG concentration in rat plasma (Day 1) ([4]; CBG 100 mg/kg oral gavage once, 15 min post Rx): BLQ (BLQ—Below Limit of Quantification (2.5 ng/ml))
CBG concentration in rat plasma (Day 1) ([4]; CBG 100 mg/kg oral gavage once, 30 min post Rx): BLQ (BLQ—Below Limit of Quantification (2.5 ng/ml))
CBG concentration in rat plasma (Day 1) ([4]; CBG 100 mg/kg oral gavage once, 1 hr post Rx): BLQ (BLQ—Below Limit of Quantification (2.5 ng/ml))
CBG concentration in rat plasma (Day 1) ([4]; CBG 100 mg/kg oral gavage once, 2 hr post Rx): BLQ (BLQ—Below Limit of Quantification (2.5 ng/ml))
CBG concentration in rat plasma (Day 1) ([4]; CBG 100 mg/kg oral gavage once, 8 hr post Rx): BLQ (BLQ—Below Limit of Quantification (2.5 ng/ml))
CBG concentration in rat plasma (Day 1) ([4]; CBG 100 mg/kg oral gavage once, 24 hr post Rx): BLQ (BLQ—Below Limit of Quantification (2.5 ng/ml))
concentration at 1 h ([4]; both sexes, Sprague-Dawley, rat, plasma, oral, 10 mg/kg, CBG 10 mg/kg oral gavage once daily, 1 hr post Rx, read-out: CBG concentration in rat plasma (Day 21)): 1.67 ng/mL
concentration at 4 h ([4]; both sexes, Sprague-Dawley, rat, plasma, oral, 10 mg/kg, CBG 10 mg/kg oral gavage once daily, 4 hr post Rx, read-out: CBG concentration in rat plasma (Day 21)): 4.73 ng/mL
concentration at 8 h ([4]; both sexes, Sprague-Dawley, rat, plasma, oral, 10 mg/kg, CBG 10 mg/kg oral gavage once daily, 8 hr post Rx, read-out: CBG concentration in rat plasma (Day 21)): 2.55 ng/mL
concentration at 2 h ([4]; both sexes, Sprague-Dawley, rat, plasma, oral, 10 mg/kg, CBG 10 mg/kg oral gavage once, 2 hr post Rx, read-out: CBG concentration in rat plasma (Day 1)): 12 ng/mL
concentration at 15 min ([4]; both sexes, Sprague-Dawley, rat, plasma, oral, 30 mg/kg, CBG 30 mg/kg oral gavage once, 15 min post Rx, read-out: CBG concentration in rat plasma (Day 1)): 3.8 ng/mL
concentration at 30 min ([4]; both sexes, Sprague-Dawley, rat, plasma, oral, 30 mg/kg, CBG 30 mg/kg oral gavage once, 30 min post Rx, read-out: CBG concentration in rat plasma (Day 1)): 15.2 ng/mL
concentration at 24 h ([4]; both sexes, Sprague-Dawley, rat, plasma, oral, 30 mg/kg, CBG 30 mg/kg oral gavage once, 24 hr post Rx, read-out: CBG concentration in rat plasma (Day 1)): 2.75 ng/mL
concentration at 15 min ([4]; both sexes, Sprague-Dawley, rat, plasma, oral, 100 mg/kg, CBG 100 mg/kg oral gavage once daily, 15 min post Rx, read-out: CBG concentration in rat plasma (Day 21)): 41.6 ng/mL
concentration at 30 min ([4]; both sexes, Sprague-Dawley, rat, plasma, oral, 100 mg/kg, CBG 100 mg/kg oral gavage once daily, 30 min post Rx, read-out: CBG concentration in rat plasma (Day 21)): 178 ng/mL
concentration at 1 h ([4]; both sexes, Sprague-Dawley, rat, plasma, oral, 100 mg/kg, CBG 100 mg/kg oral gavage once daily, 1 hr post Rx, read-out: CBG concentration in rat plasma (Day 21)): 226 ng/mL
concentration at 2 h ([4]; both sexes, Sprague-Dawley, rat, plasma, oral, 100 mg/kg, CBG 100 mg/kg oral gavage once daily, 2 hr post Rx, read-out: CBG concentration in rat plasma (Day 21)): 307 ng/mL
concentration at 4 h ([4]; both sexes, Sprague-Dawley, rat, plasma, oral, 100 mg/kg, CBG 100 mg/kg oral gavage once, 4 hr post Rx, read-out: CBG concentration in rat plasma (Day 1)): 119 ng/mL
concentration of CBG in plasma (in words) ([4]; oral CBG 10-100 mg/kg, Days 1 and 21): low or below the level of quantitation (BLQ)
first pass metabolism to the glucuronide upon oral administration (in words) ([4]; oral CBG, rat): very high first pass metabolism to the glucuronide
half-life [5]: 22.6 min
hepatocyte CLint [5]: 61.4 µL/min/1e6 cells
number of metabolites observed [6]: Seven
